Experimental data published in ChEMBL document CHEMBL3867478, “ProTides of BVdU as potential anticancer agents upon efficient intracellular delivery of their activated metabolites” (Bioorg Med Chem Lett, 2016).

Experiment: Drug level in pH 7.6 trizma buffer treated with 5 mg (E)-5-(2-bromovinyl)-2'-deoxyuridine-5'-(1-naphthyl(methoxy-L-tryptophanyl)-phosphate assessed as carboxypeptidase Y (unknown origin)-mediated compound formation measured every 7 mins for 14 hrs by [31P]-NMR spectroscopic analysis
Assay type: ADME
Details: pH 7.6, 14 h

In the case of `O=C1OP(=O)(OC[C@H]2O[C@@H](n3cc(/C=C/Br)c(=O)[nH]c3=O)C[C@@H]2O)NC1Cc1c[nH]c2ccccc12` (stereo partly drawn), the Drug metabolism is reported as “Metabolite_Detected”.
With `O=C(O)C(Cc1c[nH]c2ccccc12)NP(=O)(O)OC[C@H]1O[C@@H](n2cc(/C=C/Br)c(=O)[nH]c2=O)C[C@@H]1O` (stereo partly drawn) the Drug metabolism was “Metabolite_Detected”.
For `O=C(O)C(Cc1c[nH]c2ccccc12)NP(=O)(OC[C@H]1O[C@@H](n2cc(/C=C/Br)c(=O)[nH]c2=O)C[C@@H]1O)Oc1cccc2ccccc12` (stereo partly drawn), the Drug metabolism was “Metabolite_Detected”.
